biological target: T1, CCR2 (Homo sapiens, UniProt P41597); experiment: MCP-1 Receptor Binding Assay in THP-1 Cells; conditions: MCP-1 binding to CCR2; test concentration of 25 μM, unless indicated otherwise; read-out: % Inhibition Ligand Binding
T1 sequence (P41597 1-360 isoform P41597-2): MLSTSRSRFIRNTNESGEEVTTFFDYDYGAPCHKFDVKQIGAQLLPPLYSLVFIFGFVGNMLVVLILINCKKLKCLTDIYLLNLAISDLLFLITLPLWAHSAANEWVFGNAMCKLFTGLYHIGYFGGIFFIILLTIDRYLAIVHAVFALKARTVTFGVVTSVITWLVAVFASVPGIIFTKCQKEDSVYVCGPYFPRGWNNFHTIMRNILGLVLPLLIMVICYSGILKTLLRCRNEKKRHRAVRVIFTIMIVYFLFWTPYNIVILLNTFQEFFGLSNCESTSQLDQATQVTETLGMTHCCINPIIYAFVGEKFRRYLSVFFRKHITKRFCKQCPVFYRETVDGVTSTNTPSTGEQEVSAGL
Protocol: THP-1 cells were obtained from American Type Culture Collection (Manassas, Va., USA). […] The cell density was maintained between 0.5×10^6 cells/mL.
Cells were then harvested onto a filter plate, dried, and 20 μL of Microscint 20 was added to each well. Plates were counted in a TopCount NXT, Microplate Scintillation & Luminescence Counter (Perkin-Elmer Life Sciences, Inc. Boston, Mass.). Blank values (buffer only) were subtracted from all values and drug treated values were compared to vehicle treated values. 1 μM cold MCP-1 was used for nonspecific binding.

Structure (SMILES)	inhibition at 25 µM [%]
Cc1cc(Cl)cc2c1OCC(C(=O)NCc1ccc(C[N+](C)(C)C3CCOCC3)cc1)=C2 [Cpd 121, (4-{[(6-chloro-8-methyl-2H-chromene-3-carbonyl)-amino]-methyl}-benzyl)-dimethyl-(tetrahydro-pyran-4-yl)-ammonium iodide]	37
C[N+](C)(Cc1ccc(NC(=O)C2=Cc3cc(F)ccc3OC2)cc1)C1CCCCC1 [Cpd 123, cyclohexyl-{4-[(6-fluoro-2H-chromene-3-carbonyl)-amino]-benzyl}-dimethyl-ammonium iodide]	100
C[N+](C)(Cc1ccc(NC(=O)C2=Cc3c(F)cccc3OC2)cc1)C1CCCCC1 [Cpd 124, cyclohexyl-{4-[(5-fluoro-2H-chromene-3-carbonyl)-amino]-benzyl}-dimethyl-ammonium iodide]	100
C[N+](C)(Cc1ccc(NC(=O)C2=Cc3cc(C(F)(F)F)ccc3OC2)cc1)C1CCCCC1 [Cpd 125, cyclohexyl-dimethyl-{4-[(6-trifluoromethyl-2H-chromene-3-carbonyl)-amino]-benzyl}-ammonium iodide]	100

same assay, conditions: THP-1 cells, 0.5 nM 125I labeled MCP-1, 2 hours at 30° C.; read-out: Mean Ligand Binding IC50 (inhibition of MCP-1 binding to CCR2)

Structure (SMILES)	IC50 [nM]
C[N+](C)(Cc1ccc(NC(=O)C2=Cc3c(Cl)cc(Cl)cc3OC2)cc1)C1CCOCC1 [Cpd 100, {4-[(5,7-dichloro-2H-chromene-3-carbonyl)-amino]-benzyl}-dimethyl-(tetrahydro-pyran-4-yl)-ammonium iodide]	520
C[N+](C)(Cc1ccc(NC(=O)C2=Cc3c(Cl)cc(Cl)cc3OC2)cc1)C1CCCCC1 [Cpd 101, cyclohexyl-{4-[(5,7-dichloro-2H-chromene-3-carbonyl)-amino]-benzyl}-dimethyl-ammonium iodide]	1100
C[N+](C)(Cc1ccc(NC(=O)C2=Cc3cc(Cl)cc(Cl)c3OC2)cc1)C1CCOCC1 [Cpd 102, {4-[(6,8-dichloro-2H-chromene-3-carbonyl)-amino]-benzyl}-dimethyl-(tetrahydro-pyran-4-yl)-ammonium iodide]	190
Cc1ccc2c(c1)C=C(C(=O)Nc1ccc(C[N+](C)(C)C3CCOCC3)cc1)CO2 [Cpd 103, dimethyl-{4-[(6-methyl-2H-chromene-3-carbonyl)-amino]-benzyl}-(tetrahydro-pyran-4-yl)-ammonium iodide]	820
COc1ccc2c(c1)C=C(C(=O)Nc1ccc(C[N+](C)(C)C3CCOCC3)cc1)CO2 [Cpd 104, {4-[(6-methoxy-2H-chromene-3-carbonyl)-amino]-benzyl}-dimethyl-(tetrahydro-pyran-4-yl)-ammonium iodide]	1900
Cc1ccc2c(c1)C=C(C(=O)Nc1ccc(C[N+](C)(C)C3CCCCC3)cc1)CO2 [Cpd 105, cyclohexyl-dimethyl-{4-[(6-methyl-2H-chromene-3-carbonyl)-amino]-benzyl}-ammonium iodide]	320
COc1ccc2c(c1)C=C(C(=O)Nc1ccc(C[N+](C)(C)C3CCCCC3)cc1)CO2 [Cpd 106, cyclohexyl-{4-[(6-methoxy-2H-chromene-3-carbonyl)-amino]-benzyl}-dimethyl-ammonium iodide]	1100
C[N+](C)(Cc1ccc(NC(=O)C2=Cc3cc(Cl)cc(Cl)c3OC2)cc1)C1CCCCC1 [Cpd 107, cyclohexyl-{4-[(6,8-dichloro-2H-chromene-3-carbonyl)-amino]-benzyl}-dimethyl-ammonium iodide]	170
C[N+](C)(Cc1ccc(NC(=O)C2=Cc3cc(Cl)ccc3OC2)cc1)C[C@H]1CCCO1 [Cpd 108, (2R)-{4-[(6-chloro-2H-chromene-3-carbonyl)-amino]-benzyl}-dimethyl-(tetrahydro-furan-2-ylmethyl)-ammonium iodide]	3100
C[N+](C)(Cc1ccc(NC(=O)C2=Cc3cc(Cl)ccc3OC2)cc1)C[C@@H]1CCCO1 [Cpd 109, (2S)-{4-[(6-chloro-2H-chromene-3-carbonyl)-amino]-benzyl}-dimethyl-(tetrahydro-furan-2-ylmethyl)-ammonium iodide]	5300
C[N+](C)(Cc1ccc(NC(=O)C2=Cc3cc(Cl)ccc3OC2)cc1)[C@H]1CC2CCC1C2 (stereo partly drawn) [Cpd 110, (2S)-bicyclo[2.2.1]hept-2-yl-{4-[(6-chloro-2H-chromene-3-carbonyl)-amino]-benzyl}-dimethyl-ammonium iodide]	320
C[N+](C)(Cc1ccc(NC(=O)C2=Cc3cc(Cl)cc(Cl)c3OC2)cc1)C1CC2CCC1C2 (centres unmarked) [Cpd 111, bicyclo[2.2.1]hept-2-yl-{4-[(6,8-dichloro-2H-chromene-3-carbonyl)-amino]-benzyl}-dimethyl-ammonium iodide]	2000
Cc1cccc2c1OCC(C(=O)Nc1ccc(C[N+](C)(C)C3CCOCC3)cc1)=C2 [Cpd 112, dimethyl-{4-[(8-methyl-2H-chromene-3-carbonyl)-amino]-benzyl}-(tetrahydro-pyran-4-yl)-ammonium iodide]	150
Cc1cccc2c1OCC(C(=O)Nc1ccc(C[N+](C)(C)C3CCCCC3)cc1)=C2 [Cpd 113, cyclohexyl-dimethyl-{4-[(8-methyl-2H-chromene-3-carbonyl)-amino]-benzyl}-ammonium iodide]	530
Cc1cc(Cl)cc2c1OCC(C(=O)Nc1ccc(C[N+](C)(C)C3CCCCC3)cc1)=C2 [Cpd 114, {4-[(6-chloro-8-methyl-2H-chromene-3-carbonyl)-amino]-benzyl}-cyclohexyl-dimethyl-ammonium iodide]	60
Cc1cc(Cl)cc2c1OCC(C(=O)Nc1ccc(C[N+](C)(C)C3CCOCC3)cc1)=C2 [Cpd 115, {4-[(6-chloro-8-methyl-2H-chromene-3-carbonyl)-amino]-benzyl}-dimethyl-(tetrahydro-pyran-4-yl)-ammonium iodide]	50
C[N+](C)(Cc1ccc(NC(=O)C2=Cc3ccc(Cl)c(Cl)c3OC2)cc1)C1CCCCC1 [Cpd 116, cyclohexyl-{4-[(7,8-dichloro-2H-chromene-3-carbonyl)-amino]-benzyl}-dimethyl-ammonium iodide]	600
Cc1cc(Cl)cc2c1OCC(C(=O)Nc1ccc(C[N+](C)(C)C3CC4CCC3C4)cc1)=C2 (centres unmarked) [Cpd 117, bicyclo[2.2.1]hept-2-yl-{4-[(6-chloro-8-methyl-2H-chromene-3-carbonyl)-amino]-benzyl}-dimethyl-ammonium iodide]	120
Cc1cc(Cl)cc2c1OCC(C(=O)Nc1ccc(C[N+](C)(C)C3CCCCCC3)cc1)=C2 [Cpd 118, {4-[(6-chloro-8-methyl-2H-chromene-3-carbonyl)-amino]-benzyl}-cycloheptyl-dimethyl-ammonium iodide]	200
Cc1cc(Cl)cc2c1OCC(C(=O)Nc1ccc(C[N+](C)(C)C3CCCC3)cc1)=C2 [Cpd 119, {4-[(6-chloro-8-methyl-2H-chromene-3-carbonyl)-amino]-benzyl}-cyclopentyl-dimethyl-ammonium iodide]	100
Cc1cc(Cl)cc2c1OCC(C(=O)Nc1ccc(C[N+](C)(C)C3CCSC3)cc1)=C2 (centres unmarked) [Cpd 120, {4-[(6-chloro-8-methyl-2H-chromene-3-carbonyl)-amino]-benzyl}-dimethyl-(tetrahydro-thiophen-3-yl)-ammonium iodide]	30
C[N+](C)(Cc1ccc(NC(=O)C2=Cc3cc(Cl)cc(Cl)c3OC2)cc1)C1CCSC1 (centres unmarked) [Cpd 122, {4-[(6,8-dichloro-2H-chromene-3-carbonyl)-amino]-benzyl}-dimethyl-(tetrahydro-thiophen-3-yl)-ammonium iodide]	580

— US7799824B2, “Quaternary salt CCR2 antagonists” (OraPharma, Inc., priority 2004, dated 2010)
